Measurements from the supplement of paper PMC13380429.

What was measured:
Settings in all cases: 72 h
[1] = system: U2OS; assay: cell viability relative to DMSO; higher = less toxic
[2] = system: Caco-2; assay: as above
[3] = system: HepG2; assay: as above
[4] = system: Calu-3; assay: as above
[5] = system: Vero E6; assay: as above
[6] = system: U2OS; assay: drug sensitivity score (DSS) for viability; higher = more toxic; extreme values may be limits of the assay
[7] = system: Caco-2; assay: as above
[8] = system: HepG2; assay: as above
[9] = system: Calu-3; assay: as above
[10] = system: Vero E6; assay: as above
[11] = system: U2OS; assay: relative viability EC50 (midpoint between 100% and the lowest measured viability); higher = less toxic
[12] = system: Caco-2; assay: as above
[13] = system: HepG2; assay: as above
[14] = system: Calu-3; assay: as above
[15] = system: Vero E6; assay: as above

Row | SMILES | cell viability ([1]; 1 nM) | cell viability ([1]; 10 nM) | cell viability ([1]; 100 nM) | cell viability ([1]; 1000 nM) | cell viability ([1]; 10000 nM) | cell viability ([2]; 1 nM) | cell viability ([2]; 10 nM) | cell viability ([2]; 100 nM) | cell viability ([2]; 1000 nM) | cell viability ([2]; 10000 nM) | cell viability ([3]; 1 nM) | cell viability ([3]; 10 nM) | cell viability ([3]; 100 nM) | cell viability ([3]; 1000 nM) | cell viability ([3]; 10000 nM) | cell viability ([4]; 1 nM) | cell viability ([4]; 10 nM) | cell viability ([4]; 100 nM) | cell viability ([4]; 1000 nM) | cell viability ([4]; 10000 nM) | cell viability ([5]; 1 nM) | cell viability ([5]; 10 nM) | cell viability ([5]; 100 nM) | cell viability ([5]; 1000 nM) | cell viability ([5]; 10000 nM) | drug sensitivity score [6] | drug sensitivity score [7] | drug sensitivity score [8] | drug sensitivity score [9] | drug sensitivity score [10] | relative viability EC50 [11] | relative viability EC50 [12] | relative viability EC50 [13] | relative viability EC50 [14] | relative viability EC50 [15]
1 | C[C@H]1COc2c(C3(N)CC3)c(F)cc3c(=O)c(C(=O)O)cn1c23 [pazufloxacin] | 103% | 103% | 100% | 99.9% | 97.3% | 103% | 93.5% | 90.3% | 99.2% | 102% | 88.8% | 107% | 101% | 98.9% | 99.4% | 96.9% | 98.7% | 90.6% | 101% | 89.3% | 93.7% | 103% | 103% | 94.6% | 99.2% | 0 | 0 | 0 | 0 | 0 | > 10 µM | > 10 µM | > 10 µM | > 10 µM | > 10 µM
2 | O[C@@H](Cc1ccncc1)C(Cl)(Cl)Cl [PETCM] | 98.8% | 93.3% | 99.1% | 93.3% | 99.1% | 99.4% | 95.8% | 103% | 98.7% | 105% | 101% | 103% | 95.2% | 99.3% | 97.8% | 98.8% | 89.8% | 114% | 95.3% | 110% | 94.7% | 97.1% | 96% | 102% | 98.2% | 0 | 0 | 0 | 0 | 0 | > 10 µM | > 10 µM | > 10 µM | > 10 µM | > 10 µM
3 | CN(C)C(=O)Oc1cc(OC(=O)N(C)C)cc(C(O)CNC(C)(C)C)c1 (stereo not given) [bambuterol] | 96.4% | 93.5% | 95.5% | 101% | 104% | 97.7% | 94.5% | 89.6% | 103% | 104% | 96.1% | 97.2% | 99.1% | 96.9% | 95.6% | 95.8% | 98.6% | 99.2% | 89.4% | 117% | 99.8% | 97.9% | 93.1% | 90.3% | 101% | 0 | 0 | 0 | 0 | 0 | > 10 µM | > 10 µM | > 10 µM | > 10 µM | > 10 µM
4 | CC(=O)Nc1ccc(C(=O)NC(C)(C)C)cc1 [CPI-1189] | 100% | 93.3% | 98.2% | 97% | 98.7% | 99.9% | 99.7% | 104% | 95.7% | 99.9% | 91.5% | 95.3% | 96.6% | 97.4% | 94.2% | 108% | 105% | 108% | 114% | 96.6% | 96% | 99.6% | 97.8% | 97.2% | 91.8% | 0 | 0 | 0 | 0 | 0 | > 10 µM | > 10 µM | > 10 µM | > 10 µM | > 10 µM
5 | C[C@](N)(Cc1ccc(O)c(O)c1)C(=O)O [methyldopa] | 101% | 103% | 96.7% | 97.8% | 93.1% | 97.5% | 103% | 89.8% | 106% | 99.9% | 94.1% | 97.4% | 104% | 92.3% | 108% | 96.9% | 102% | 101% | 98.9% | 93.6% | 99.2% | 102% | 94.5% | 97.9% | 106% | 0 | 0 | 0 | 0 | 0 | > 10 µM | > 10 µM | > 10 µM | > 10 µM | > 10 µM
6 | Cc1cccc(Oc2cnc(=O)[nH]c2)c1 [tolimidone] | 103% | 98.4% | 103% | 99.9% | 104% | 111% | 95.7% | 94.8% | 95.9% | 102% | 111% | 95.4% | 80.8% | 94.1% | 98% | 108% | 93.8% | 92.2% | 99.7% | 95.8% | 108% | 95.4% | 90.3% | 95.7% | 91.2% | 0 | 0 | 0 | 0 | 0 | > 10 µM | > 10 µM | > 10 µM | > 10 µM | > 10 µM
7 | COc1cc(OC)cc(-c2ccc3c(-c4ccc(F)cc4)n[nH]c3n2)c1 [APcK-110] | 93.5% | 99.5% | 97.9% | 99.9% | 103% | 94.5% | 98.3% | 97.6% | 96.3% | 99.9% | 99.8% | 90.1% | 101% | 98.1% | 107% | 99.5% | 110% | 104% | 103% | 97.3% | 99.1% | 89.9% | 97.1% | 93.3% | 108% | 0 | 0 | 0 | 0 | 0 | > 10 µM | > 10 µM | > 10 µM | > 10 µM | > 10 µM
